# In ChEMBL document CHEMBL1122943, “Cardiotonic agents. 2. Synthesis and structure-activity relationships of 4,5-dihydro-6-[4-(1H-imidazol-1-yl)phenyl]-3(2H)-pyridazinones: a new class of positive inotropic agents” (1985):
# Columns and labels:
# [1] = system: Canis familiaris; assay: Evaluated for 50% increase of myocardial contractility in anesthetized dog, administered intravenously; format: functional, Canis lupus familiaris, Myocardium
# [2] = system: Canis familiaris; assay: Compound was evaluated for 40-60% increase of myocardial contractility in a conscious dog model orally administered; format: functional, Canis lupus familiaris, Myocardium
# [3] = system: Canis familiaris; assay: Compound was evaluated for 40-60% increase of myocardial contractility in a conscious dog model perorally administered; format: functional, Canis lupus familiaris, Myocardium
# [4] = system: Canis familiaris; assay: Percent increase in contractility was evaluated by effect of Cardiotonic agents on myocardial contractility in conscious dog administered orally at dose of 1.0 mg/kg; format: functional, Canis lupus familiaris, Myocardium; details: route oral
# [5] = system: Canis familiaris; assay: Percent increase in heart rate was evaluated by effect of Cardiotonic agents on myocardial contractility in conscious dog administered orally at dose of 1.0 mg/kg; format: functional, Canis lupus familiaris; details: route oral
# [6] = system: Canis familiaris; assay: Cardiovascular activity (contractility) (0.31 ug/kg) in dog before beta-blockade.; format: functional, Canis lupus familiaris
# [7] = system: Canis familiaris; assay: Cardiovascular activity (blood pressure) (0.31 ug/kg) in dog before beta-blockade; format: functional, Canis lupus familiaris
# [8] = system: Canis familiaris; assay: Cardiovascular activity (blood pressure) (0.31 ug/kg)in dog after beta-blockade; format: functional, Canis lupus familiaris
# [9] = system: Canis familiaris; assay: Cardiovascular activity (contractility) (0.31 ug/kg) in dog after beta-blockade; format: functional, Canis lupus familiaris
# [10] = system: Canis familiaris; assay: Cardiovascular activity (heart rate) (0.31 ug/kg) in dog after beta-blockade.; format: functional, Canis lupus familiaris
# [11] = system: Canis familiaris; assay: Cardiovascular activity (heart rate) (0.31 ug/kg) in dog before beta-blockade; format: functional, Canis lupus familiaris
# [12] = system: Canis familiaris; assay: Percent increase in heart rate was evaluated by effect of Cardiotonic agents on myocardial contractility in conscious dog administered orally at dose of 0.31 mg/kg; format: functional, Canis lupus familiaris; details: route oral
# [13] = system: Canis familiaris; assay: Percent increase in heart rate was evaluated by effect of Cardiotonic agents on myocardial contractility in conscious dog administered orally at dose of 0.1 mg/kg; Value is not statistically significant.; format: functional, Canis lupus familiaris; details: route oral
# [14] = system: Canis familiaris; assay: Compound was evaluated for 40-60% increase of myocardial contractility in a conscious dog model orally administered.; format: functional, Canis lupus familiaris, Myocardium
# [15] = system: Canis familiaris; assay: Percent increase in contractility was evaluated by effect of Cardiotonic agents on myocardial contractility in conscious dog administered orally at dose of 0.1 mg/kg; format: functional, Canis lupus familiaris, Myocardium; details: route oral
# [16] = system: Canis familiaris; assay: Percent increase in contractility was evaluated by effect of Cardiotonic agents on myocardial contractility in conscious dog administered orally at dose of 0.31 mg/kg; format: functional, Canis lupus familiaris, Myocardium; details: route oral
# [17] = system: Canis familiaris; assay: Cardiovascular activity (contractility) (0.31 mg/kg) in dog after beta-blockade; format: functional, Canis lupus familiaris
# [18] = system: Canis familiaris; assay: Cardiovascular activity(heart rate) (0.31 mg/kg) in dog before beta-blockade; format: functional, Canis lupus familiaris
# [19] = system: Canis familiaris; assay: Percent increase in heart rate was evaluated by effect of Cardiotonic agents on myocardial contractility in conscious dog administered orally at dose of 0.31 mg/kg; Value ranges from(10-15); format: functional, Canis lupus familiaris; details: route oral
# [20] = system: Canis familiaris; assay: Cardiovascular activity (contractility) (0.31 mg/kg) in dog before beta-blockade.; format: functional, Canis lupus familiaris
# [21] = system: Canis familiaris; assay: Cardiovascular activity(blood pressure) (0.31 mg/kg) in dog before beta-blockade.; format: functional, Canis lupus familiaris
# [22] = system: Canis familiaris; assay: Cardiovascular activity(heart rate) (0.31 mg/kg) in dog after beta-blockade; format: functional, Canis lupus familiaris
# [23] = system: Canis familiaris; assay: Percent increase in contractility was evaluated by effect of Cardiotonic agents on myocardial contractility in conscious dog administered orally at dose of 0.31 mg/kg; Value ranges from (10-20); format: functional, Canis lupus familiaris, Myocardium; details: route oral
# [24] = system: Canis familiaris; assay: Cardiovascular activity(blood pressure) (0.31 mg/kg) in dog after beta-blockade; format: functional, Canis lupus familiaris
# [25] = system: Canis familiaris; assay: Compound was evaluated for 50% increase of myocardial contractility in a conscious dog model orally administered.; format: functional, Canis lupus familiaris, Myocardium
# [26] = system: Canis familiaris; assay: Percent increase in heart rate was evaluated by effect of Cardiotonic agents on myocardial contractility in conscious dog administered orally at dose of 10 mg/kg; format: functional, Canis lupus familiaris; details: route oral
# [27] = system: Canis familiaris; assay: Percent increase in contractility was evaluated by effect of Cardiotonic agents on myocardial contractility in conscious dog administered orally at dose of 10 mg/kg; format: functional, Canis lupus familiaris, Myocardium; details: route oral
# [28] = system: Canis familiaris; assay: Percent increase in contractility was evaluated by effect of Cardiotonic agents on myocardial contractility in conscious dog administered orally at dose of 3.1 mg/kg; format: functional, Canis lupus familiaris, Myocardium; details: route oral
# [29] = system: Canis familiaris; assay: Percent increase in heart rate was evaluated by effect of Cardiotonic agents on myocardial contractility in conscious dog administered orally at dose of 3.1 mg/kg; format: functional, Canis lupus familiaris; details: route oral
smiles,measurement,setting,value
O=C1NN=C(c2ccc(-n3ccnc3)cc2)C2CCCCC12 (stereo not drawn),Dose,[1],1 mg/kg
O=C(O)c1cc(-c2ccc(-n3ccnc3)cc2)nnc1O,Dose,[1],>1 mg/kg
Cc1cc(-c2ccc(-n3ccnc3)cc2)nnc1O,Dose,[1],0.3 mg/kg
CC1CC(=O)NN=C1c1ccc(-n2cnc3c2CCCC3)cc1 (stereo not drawn) [TETRAHYDROBENXIMIDAZOLE],Dose,[1],0.02 mg/kg
same,Dose,[2],0.3 mg/kg
CSc1nccn1-c1ccc(C2=NNC(=O)CC2)cc1,Dose,[3],10 mg/kg
Cc1[nH]c(=O)c(C#N)cc1-c1ccncc1 [MILRINONE],Increase,[4],45%
same,Increase,[5],60%
same,Dose,[1],0.037 mg/kg
O=C1CCC(c2ccc(-n3cnc(CO)c3)cc2)=NN1,Dose,[1],0.034 mg/kg
O=C1CCC(c2ccc(-n3cccc3)cc2)=NN1,Dose,[2],10 mg/kg
O=C1CCC(c2ccc(-n3cnc4ccccc43)cc2)=NN1,Dose,[1],0.1 mg/kg
same,Dose,[2],3.1 mg/kg
NNC(=O)c1cc(-c2ccc(-n3ccnc3)cc2)nnc1O,Dose,[1],1 mg/kg
NC(=O)c1cc(-c2ccc(-n3ccnc3)cc2)nnc1O,Dose,[1],>1 mg/kg
CC(=O)OCCN1N=C(c2ccc(-n3ccnc3)cc2)CCC1=O,Dose,[1],>1 mg/kg
CN1N=C(c2ccc(-n3ccnc3)cc2)CCC1=O,Dose,[1],>1 mg/kg
O=C1CCC(c2ccc(-n3cncn3)cc2)=NN1,Dose,[2],1 mg/kg
CC(C)NCC(O)c1ccc(O)c(O)c1 (stereo not drawn) [ISOPROTERENOL],Change,[6],96%
same,Change,[7],-6.6%
same,Change,[8],1%
same,Change,[9],10.4%
same,Change,[10],0.4%
same,Change,[11],31%
O=C1CCC(c2ccc(-n3cnc4c3CCCC4)cc2)=NN1,Dose,[1],0.064 mg/kg
same,Dose,[2],>1 mg/kg
CCc1nc(C)c(Br)n1-c1ccc(-c2ccc(O)nn2)cc1,Dose,[1],0.2 mg/kg
Oc1ccc(-c2ccc(-n3cnc4c3CCCC4)cc2)nn1,Dose,[1],0.1 mg/kg
CC1CC(O)=NN=C1c1ccc(-n2ccnc2)cc1 (stereo not drawn) [CI-930],Increase,[12],49%
same,Increase,[13],34%
same,Dose,[14],0.1 mg/kg
same,Increase,[15],42%
same,Dose,[1],0.013 mg/kg
same,Increase,[16],70%
Cc1nccn1-c1ccc(C2=NNC(=O)CC2)cc1,Dose,[1],0.3 mg/kg
same,Dose,[3],1 mg/kg
C[S+]([O-])c1nccn1-c1ccc(C2=NNC(=O)CC2)cc1 (stereo not drawn),Dose,[1],0.3 mg/kg
same,Dose,[2],10 mg/kg
CCc1nc(C)cn1-c1ccc(-c2ccc(O)nn2)cc1,Dose,[1],0.3 mg/kg
Cc1nccn1-c1ccc(-c2ccc(O)nn2)cc1,Dose,[1],0.1 mg/kg
Oc1ccc(-c2ccc(-n3ccnc3)cc2)nn1,Dose,[1],0.1 mg/kg
Cn1nc(-c2ccc(-n3ccnc3)cc2)ccc1=O,Dose,[1],>1 mg/kg
O=C1CCC(c2ccc(-n3ccnc3)cc2)=NN1 [IMAZODAN],Change,[17],62.4%
same,Increase,[4],40%
same,Increase,[5],29%
same,Change,[18],24%
same,Increase,[19],10%
same,Dose,[14],1 mg/kg
same,Change,[20],82%
same,Change,[21],-4.2%
same,Change,[22],5.4%
same,Increase,[23],10%
same,Dose,[1],0.045 mg/kg
same,Change,[24],-2.8%
CSc1ccc(C(=O)c2[nH]c(=O)[nH]c2C)cc1 [ENOXIMONE],Dose,[1],0.283 mg/kg
Cc1cc(O)nnc1-c1ccc(-n2ccnc2)cc1,Dose,[1],>1 mg/kg
Oc1ccc(-c2cccc(-n3ccnc3)c2)nn1,Dose,[1],0.2 mg/kg
Nc1cc(-c2ccc(-n3ccnc3)cc2)nnc1O,Dose,[1],0.3 mg/kg
CCC1CC(=O)NN=C1c1ccc(-n2ccnc2)cc1 (stereo not drawn),Dose,[1],1 mg/kg
O=C1CCC(c2cccc(-n3ccnc3)c2)=NN1,Dose,[25],>1 mg/kg
O=c1ccc(-c2ccc(-n3ccnc3)cc2)nn1CCO,Dose,[1],>1 mg/kg
CC1CC(c2ccc(-n3ccnc3)cc2)=NNC1=O (stereo not drawn),Dose,[1],1 mg/kg
Cc1cc(O)nnc1-c1ccc(-n2cnc3c2CCCC3)cc1,Dose,[1],>0.1 mg/kg
CS(=O)(=O)c1nccn1-c1ccc(C2=NNC(=O)CC2)cc1,Dose,[2],>1 mg/kg
O=C1CCC(c2ccc(-n3ccnc3S)cc2)=NN1,Dose,[14],>10 mg/kg
COc1cc([S+](C)[O-])ccc1-c1nc2cccnc2[nH]1 (stereo not drawn) [SULMAZOLE],Increase,[26],61%
same,Dose,[1],0.435 mg/kg
same,Increase,[27],57%
CCc1nc(C)cn1-c1ccc(C2=NNC(=O)CC2)cc1,Dose,[1],0.1 mg/kg
same,Dose,[2],<3.1 mg/kg
O=C1CCC(c2ccc(-n3cccn3)cc2)=NN1,Dose,[14],>3.1 mg/kg
O=C1CCC(c2ccc(-n3ccnc3)cc2)=NN1Cc1ccccc1,Dose,[2],10 mg/kg
Nc1cc(-c2ccncc2)c[nH]c1=O [INAMRINONE],Increase,[28],6%
same,Increase,[26],18%
same,Increase,[29],23%
same,Dose,[1],0.389 mg/kg
same,Increase,[27],45%
O=C1CCC(c2ccc(-n3cnnc3)cc2)=NN1,Dose,[2],>3.1 mg/kg
